Seven compounds from ChEMBL document CHEMBL1135903 (J Med Chem, 2002) can be followed below.

Converted amounts (≈) assume the structure as drawn.

One series in a line: physchem. Particulars: buffer, pH 5.5.
A further series deals with T1, Carbonic anhydrase 4 (Bos taurus, UniProt Q95323).
T1 sequence (Q95323 whole entry): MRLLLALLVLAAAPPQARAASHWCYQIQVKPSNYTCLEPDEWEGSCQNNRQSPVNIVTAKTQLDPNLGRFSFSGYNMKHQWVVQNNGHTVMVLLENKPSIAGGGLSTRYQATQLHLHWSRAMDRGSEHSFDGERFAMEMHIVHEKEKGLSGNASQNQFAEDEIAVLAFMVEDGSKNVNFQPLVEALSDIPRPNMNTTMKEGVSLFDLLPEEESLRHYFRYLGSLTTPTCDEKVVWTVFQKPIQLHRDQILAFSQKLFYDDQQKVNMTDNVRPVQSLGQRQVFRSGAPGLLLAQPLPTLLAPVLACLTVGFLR

The next series addresses Carbonic anhydrase 1 (Homo sapiens, UniProt P00915).
For series [1] the following is noted: octanol/water.
Assay in series [2]: not given
This is another data set of the same source.

Assay in series [3]: not given
The source holds these as a separate data set.

Series [4] can be described thus: Partition coefficient in Chloroform-buffer at pH 7.4. In kind it is physicochemical.
A short description of series [5]: Solubility in chloroform buffer at pH 7.4. In kind it is physicochemical.
Assay in series [6]: not given
This is another data set of the same source.

A short description of series [7]: Solubility in buffer at pH 7.4. In kind it is physicochemical.
Series [8] is filed under the species Oryctolagus cuniculus.
Series [9] is filed under the species Oryctolagus cuniculus. This is another data set of the same source.
Series [10] is filed under the species Oryctolagus cuniculus. This is another data set of the same source.
The species named for series [11] is Oryctolagus cuniculus. This is another data set of the same source.

Chain of Carbonic anhydrase 1 (P00915 whole entry): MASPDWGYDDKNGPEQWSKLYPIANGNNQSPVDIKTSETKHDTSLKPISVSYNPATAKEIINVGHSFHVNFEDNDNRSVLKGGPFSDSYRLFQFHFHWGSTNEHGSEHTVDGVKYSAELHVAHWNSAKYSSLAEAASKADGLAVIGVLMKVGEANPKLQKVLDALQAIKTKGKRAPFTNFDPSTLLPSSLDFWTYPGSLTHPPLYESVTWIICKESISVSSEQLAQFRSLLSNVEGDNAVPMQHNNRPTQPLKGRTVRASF
Description for Carbonic anhydrase 1: Inhibitory activity against Human carbonic anhydrase I
Description for Carbonic anhydrase 4: Inhibitory activity against bovine carbonic anhydrase IV
Description for physchem: Solubility in buffer at pH 5.5

As to `NS(=O)(=O)c1nnc(NC(=O)CN(CCOCCOCCN(CC(=O)O)CC(=O)O)CC(=O)O)s1`, the “Kin x10e3” value is given as 4.6 hr-1. This compound registered a solubility in the series “physchem” of 52 mM (≈ 28.2 mg/mL). At Carbonic anhydrase 4, this compound had a Ki of 0.021 µM. For the same compound, the affinity at Carbonic anhydrase 1 corresponds to a Ki of 0.054 µM. In series [1], the logD was 1.446. Further, the “Kin x10e3” value in [2] amounted to 8.4 hr-1.
`NS(=O)(=O)c1nnc(NC(=O)CCNC(=O)CNCC(=O)O)s1`: the figures for the “Kin x10e3” value in series [3] and in series [6] were 2.5 hr-1 and 4.6 hr-1, respectively. The same compound returned a pH-dependent lipophilicity (logD) in series [4] of 1.23. The compound also gave a solubility in series [5] of 62 mM (≈ 22.7 mg/mL). For the same compound, the Ki stood at 0.048 µM on Carbonic anhydrase 4 and 0.28 µM on Carbonic anhydrase 1.
For the compound `NS(=O)(=O)c1nnc(NC(=O)CCNC(=O)CN(CCN(CC(=O)O)CC(=O)NCCC(=O)Nc2nnc(S(N)(=O)=O)s2)CC(=O)O)s1`, the “Kin x10e3” value in [3] was determined as 3 hr-1; in series [6] it was 5.9 hr-1. This compound also gave a solubility in [7] of 46 mM (≈ 34.9 mg/mL). Further, the results for the inhibition constant (Ki) at Carbonic anhydrase 4 and on Carbonic anhydrase 1 were 0.01 µM and 0.125 µM, respectively. The compound further displayed a logD in [1] of 1.15.
For the compound `NS(=O)(=O)c1ccc(NC(=O)CN(CCOCCOCCN(CC(=O)O)CC(=O)O)CC(=O)O)c(Br)c1`, the “Kin x10e3” value was found to be 3.3 hr-1. For the same compound, the concentration in solution in the series “physchem” (solubility) came to 50 mM (≈ 30.7 mg/mL). Further, the Ki at Carbonic anhydrase 4 came to 0.032 µM. For the same compound, the affinity at Carbonic anhydrase 1 corresponds to a Ki of 0.078 µM. For the same compound, the logD in [1] is on record as 1.747. In series [2], the “Kin x10e3” value worked out at 6.5 hr-1.
As to “(Carboxymethyl-{2-[2-(2-{carboxymethyl-[(5-sulfamoyl-[1,3,4]thiadiazol-2-ylcarbamoyl)-methyl]-amino}-ethoxy)-ethoxy]-ethyl}-amino)-acetic acid; compound with Cu complex”, the Delta IOP amounted to 13.5 mmHg in the series listed under Oryctolagus cuniculus [8], 9.6 mmHg in the series filed under Oryctolagus cuniculus [9], 4.7 mmHg in the series listed under Oryctolagus cuniculus [10] and 0 mmHg in the series filed under Oryctolagus cuniculus [11].
As to `NS(=O)(=O)c1nc2ccc(OC(=O)CNCCNCC(=O)O)cc2s1`, the “Kin x10e3” value is listed as 4.7 hr-1. In the series “physchem”, this compound returned a solubility of 44 mM (≈ 17.1 mg/mL). The Ki at Carbonic anhydrase 4 is 0.011 µM. The compound also showed a Ki at Carbonic anhydrase 1 of 0.045 µM. This compound displayed a logD in [1] of 1.166. The “Kin x10e3” value in [2] amounted to 8.4 hr-1.
For `NS(=O)(=O)c1nc2ccc(OCCOC(=O)CN(CC(=O)O)CC(=O)O)cc2s1`, the logD in series [4] worked out at 1.925. For the same compound, in series [7], the concentration in solution (solubility) came to 37 mM (≈ 16.6 mg/mL). Moreover, the Ki at Carbonic anhydrase 4 turned out to be 0.01 µM; on Carbonic anhydrase 1, 0.044 µM.
